Laboratory results taken from patent publication US11866712B2, “System based on the reassembly of GFP for studying the trans-translational activity and identifying new antibiotics” (UNIVERSITE DE RENNES 1, priority 2018, dated 2024).
Entries after “also recorded” stand apart in the source; their conditions may differ.

Assays:
[1] = tested on: trans-translation; test: in vitro trans-translation assay (PURExpress kit, tmRNAGFP11, SmpB, sfGFP1-10 nonstop; GFP fluorescence); format: biochemical, Escherichia coli; conditions: concentration of 10 μM; FIG. 3(B)
Procedure: (§1) In order to evaluate the tmRNA labeling activity in vitro, the present inventors used a reconstituted cell-free protein synthesis system (PURE for Protein Synthesis Using Recombinant Elements) (Shimizu et al., Nature Biotechnol., 2001, 19(8): 751-755). The experiments were carried out using the PURExpress® commercial kit (sold by New England Biolabs) containing all the purified components of Escherichia coli that are required to carry out both the transcription and the translation. In order to convert this kit into an in vitro fluorescent trans-translation system, the inventors added the components required for the trans-translation: tmRNAGFP11, the SmpB protein, and a non-stop DNA sequence encoding the first 10 domains of sfGFP (see Materials and Methods section).
Translation and trans-translation assays. The in vitro translation reactions were carried out according to the recommendations of New England Biolabs. The in vitro trans-translation assays were carried out in various steps using the PURExpress® protein synthesis kit (New England Biolabs). […]
Analysis by fluorescence. After overnight incubation at 37° C., the reaction volume was adjusted to 125 μL and transferred into a cuvette for analysis by fluorescence using an LS 55 fluorescence spectrometer (Perkin Elmer). The fluorescence intensity at 510 nm of the trans-translated sfalaGFP was determined using an excitation at 485 nm. […]

[2] = tested on: transcription and translation; test: in vitro translation control: production of fluorescent sfalaGFP from PCR product in PURExpress kit; format: biochemical, Escherichia coli; conditions: KKL-35 10 μM added to the sfalaGFP PCR product; FIG. 3(A)
Procedure: as §1
Translation and trans-translation assays. The in vitro translation reactions were carried out according to the recommendations of New England Biolabs. […]
Analysis by fluorescence. After overnight incubation at 37° C., the reaction volume was adjusted to 125 μL and transferred into a cuvette for analysis by fluorescence using an LS 55 fluorescence spectrometer (Perkin Elmer). The fluorescence intensity at 510 nm of the trans-translated sfalaGFP was determined using an excitation at 485 nm.
The inventors first of all confirmed that there was no fluorescence generated by the components of the PURExpress® kit (see FIG. 3). […]

[3] = tested on: translation; conditions: known from Ramadoss et al., PNAS USA, 2013; cited from earlier work

## O=C(Nc1nnc(-c2ccc(F)cc2)o1)c1ccc(Cl)cc1 [KKL-35]
[1]
  activity against the trans-translation: slight activity
[2]
  inhibition of transcription and of translation (anti-transcription and anti-translation activity): No inhibition; also recorded: absence
[3]
  anti-translation activity: strong
